Experiments:
rats = settings: i.p.; cited from earlier work
ob/ob mice = settings: 30 mg/kg i.p. once daily for 7 days plus twice daily for another 7 days; cited from earlier work
human OX-1R = target: T1, human OX-1R (Homo sapiens, UniProt O43613); assay: Functional Ki determination: inhibition of orexin-A induced Ca2+ release (FLIPR, Fluo-4AM) in HEK293EBNA cells stably expressing OX-1R; type: cell-based
T1 construct: expressed in transfected cells; host or cells: HEK293EBNA
T1 sequence (O43613 1-425): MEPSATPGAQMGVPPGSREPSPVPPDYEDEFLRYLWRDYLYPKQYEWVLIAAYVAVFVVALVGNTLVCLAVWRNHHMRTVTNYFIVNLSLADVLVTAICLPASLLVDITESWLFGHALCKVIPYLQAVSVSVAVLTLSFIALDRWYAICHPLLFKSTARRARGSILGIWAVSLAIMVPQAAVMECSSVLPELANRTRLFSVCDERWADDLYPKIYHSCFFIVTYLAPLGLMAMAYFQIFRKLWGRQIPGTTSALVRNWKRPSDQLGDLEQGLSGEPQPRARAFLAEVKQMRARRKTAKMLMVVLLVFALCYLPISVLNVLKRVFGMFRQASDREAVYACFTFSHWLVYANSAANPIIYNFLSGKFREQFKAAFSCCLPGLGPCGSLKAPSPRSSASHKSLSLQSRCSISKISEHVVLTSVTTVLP
Description: Human embryonic kidney (HEK293EBNA) cells stably expressing OX-1R seeded in 96- or 384-well plates are pre-loaded with Ca^2+ sensing probe Fluo-4AM fluorescent dye for 60 min before addition of test compounds (10 μM for primary screen). Fluorescent intensity, which is a measurement of Ca^2+ concentration inside the cells, is recorded using a Fluorometric imaging plate reader (FLIPR 98R 96-well format or FLIPR 3, 384-well format, Molecular Devices) and inhibition of the peak response evoked by orexin-A (EC70 concentration) is calculated. Potency (Ki) determinations are performed utilizing the same functional assay as described for primary screening, applying the compounds in the concentration range of 340 pM to 20 μM and recording the concentration resulting in a 50% inhibition of orexin-A induced Ca^2+ release (IC50) and from there calculating the inhibition constant (Ki).
The calculation of the functional Ki values for the inhibitors was performed by use of Activity Base. The Ki value is calculated from IC50 using the Cheng Prushoff equation (with reversible inhibition that follows the Michaelis-Menten equation): Ki=IC50/(1+[S]/Km) (Cheng, Y. C. & Prushoff, W. H. (1973) Biochem. Pharmacol. 22:3099-3108).

Cc1nc2ccc(NC(=O)Nc3ccnc4cccnc34)cc2o1 [SB-334867]
behavioral satiety sequence (rats): advances the behavioral satiety sequence increasing the time the animals spend resting | body weight gain (ob/ob mice): suppressed | cumulative food intake (ob/ob mice): suppressed | lean body mass (ob/ob mice): unchanged | total fat mass (ob/ob mice): reduced

O=C(COc1cccc(-c2ccc3c(c2)COC2(CCNCC2)O3)c1)Nc1ccccc1 [Example 8, N-phenyl-2-[3-(4H-spiro[1,3-benzodioxine-2,4′-piperidin]-6-yl)phenoxy]acetamide]
Ki (human OX-1R): 253 nM

COc1cc(-c2ccc3c(c2)COC2(CCNCC2)O3)cc(OC)c1OC [Example 2, 6-[3,4,5-trimethoxyphenyl]-4H-spiro[1,3-benzodioxine-2,4′-piperidine]]
Ki (human OX-1R): 349 nM

COc1cc(-c2ccc3c(c2)OC2(CCNCC2)O3)cc(OC)c1OC [Example 4, 5-(3,4,5-trimethoxyphenyl)spiro[1,3-benzodioxole-2,4′-piperidine]]
Ki (human OX-1R): 823 nM

From patent US20060217375A1, “New compounds” (priority 2004, published 2006)
